# Source: patent US20240383830A1, “NOVEL CANNABIDIOL DERIVATIVE, METHOD FOR PREPARING SAME, AND COMPOSITION FOR COGNITIVE FUNCTION I[…]” (priority 2021, published 2024)
# pIC50: −log10 of the molar value. Like-named read-outs stand apart in the source and are kept apart here.
# Legend:
# Type in all cases: biochemical
# [1] = target: Acetylcholinesterase (AChE) (Homo sapiens, UniProt P22303); test: Acetylcholinesterase inhibition efficiency (acetylthiocholine/DTNB absorbance)
# Protocol: (§1) Concentrations of 0, 2, 5, 10, 20, 50, 100, and 200 μM of the synthesized compounds were prepared by dilution in 10% DMSO, 63% phosphate buffer, and 27% tween 80, and 50 μl was dispensed into a 96-well plate. Acetylcholinesterase or butyrylcholinesterase was prepared at 0.5 U/ml, 50 μl was added to a 96-well plate, mixed with the aliquoted compound, and left for 10 minutes. The substrate, acetylthiocholine or butyrylthiocholine, was prepared at 0.4mg/ml, then 50 μl was added to a 96-well plate and left for 20 minutes. Dithionitrobenzoic acid (DTNB) was prepared at 1.2 mg/ml, then 50 μl was added to a 96-well plate and left for 10minutes.
# [2] = target: Butyrylcholinesterase (BuChE) (Homo sapiens, UniProt P06276); test: Butyrylcholinesterase inhibition efficiency (butyrylthiocholine/DTNB absorbance)
# Protocol: as §1
# [3] = target: T1, Monoamine oxidase B (MAO-B) (Homo sapiens, UniProt P27338); test: Monoamine oxidase B inhibition efficiency (kynuramine fluorescence)
# T1 sequence (P27338 1-520): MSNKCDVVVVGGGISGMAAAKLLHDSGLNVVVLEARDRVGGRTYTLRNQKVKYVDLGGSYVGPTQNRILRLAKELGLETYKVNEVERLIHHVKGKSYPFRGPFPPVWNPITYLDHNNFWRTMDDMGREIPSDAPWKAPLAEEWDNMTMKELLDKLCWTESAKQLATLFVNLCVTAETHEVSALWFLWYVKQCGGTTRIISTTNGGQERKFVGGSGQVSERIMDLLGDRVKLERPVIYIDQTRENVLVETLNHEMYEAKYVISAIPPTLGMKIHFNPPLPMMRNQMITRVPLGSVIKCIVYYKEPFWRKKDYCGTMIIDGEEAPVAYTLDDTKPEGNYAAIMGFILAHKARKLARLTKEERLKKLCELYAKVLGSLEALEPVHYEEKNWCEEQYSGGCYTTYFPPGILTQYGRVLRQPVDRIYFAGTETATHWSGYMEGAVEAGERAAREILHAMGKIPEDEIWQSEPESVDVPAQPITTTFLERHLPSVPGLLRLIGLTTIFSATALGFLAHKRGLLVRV
# Protocol: Samples were prepared by dilution with DMSO to give concentrations of 0, 2, 5, 10, 20, 50, 100, and 200 μM of the compound, and 5 μl was dispensed into a 96-well plate. 135 μl of potassium phosphate buffer (0.1 M, 7.4 pH) was dispensed into a 96-well plate. Monoamine oxidase B was prepared at 40 μl/ml, and 50 μl was added to the 96-well plate, mixed with the dispensed compound, and left for 20 minutes. The substrate, kynuramine solution, was prepared at 100 μM, then 10 μl was added to a 96-well plate and left for 10 min. The reaction was stopped by adding 75 μl of NaOH (2N). For the fluorescence blank experiment, potassium phosphate buffer was added instead of monoamine oxidase B to correct the compound-induced fluorescence intensity values.
# [4] = 0.5 U/ml enzyme, butyrylthiocholine substrate, compound 0-200 μM, read-out: IC50 for BuChE
# [5] = kynuramine substrate, potassium phosphate buffer pH 7.4, compound 0-200 μM, read-out: IC50 for MAOB
# [6] = 0.5 U/ml enzyme, acetylthiocholine substrate, compound 0-200 μM, read-out: IC50 for AChE
# Acetylcholinesterase (AChE), sequence (P22303 32-614, species assumed): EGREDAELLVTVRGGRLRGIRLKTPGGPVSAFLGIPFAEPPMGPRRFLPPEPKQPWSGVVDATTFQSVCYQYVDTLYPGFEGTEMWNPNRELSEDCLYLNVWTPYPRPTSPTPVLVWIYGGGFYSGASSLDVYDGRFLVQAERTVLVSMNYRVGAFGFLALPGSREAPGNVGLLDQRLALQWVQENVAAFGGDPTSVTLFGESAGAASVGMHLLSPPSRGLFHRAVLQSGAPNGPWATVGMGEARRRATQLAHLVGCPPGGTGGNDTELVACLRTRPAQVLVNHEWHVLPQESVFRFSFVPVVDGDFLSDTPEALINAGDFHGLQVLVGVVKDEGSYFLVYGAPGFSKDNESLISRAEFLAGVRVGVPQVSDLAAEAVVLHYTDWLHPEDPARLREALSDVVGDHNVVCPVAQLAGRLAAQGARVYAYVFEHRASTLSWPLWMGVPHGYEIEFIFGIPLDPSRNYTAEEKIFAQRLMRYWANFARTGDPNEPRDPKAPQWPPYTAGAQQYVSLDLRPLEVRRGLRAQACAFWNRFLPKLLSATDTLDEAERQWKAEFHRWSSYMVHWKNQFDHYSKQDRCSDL
# Butyrylcholinesterase (BuChE), sequence (P06276 29-602): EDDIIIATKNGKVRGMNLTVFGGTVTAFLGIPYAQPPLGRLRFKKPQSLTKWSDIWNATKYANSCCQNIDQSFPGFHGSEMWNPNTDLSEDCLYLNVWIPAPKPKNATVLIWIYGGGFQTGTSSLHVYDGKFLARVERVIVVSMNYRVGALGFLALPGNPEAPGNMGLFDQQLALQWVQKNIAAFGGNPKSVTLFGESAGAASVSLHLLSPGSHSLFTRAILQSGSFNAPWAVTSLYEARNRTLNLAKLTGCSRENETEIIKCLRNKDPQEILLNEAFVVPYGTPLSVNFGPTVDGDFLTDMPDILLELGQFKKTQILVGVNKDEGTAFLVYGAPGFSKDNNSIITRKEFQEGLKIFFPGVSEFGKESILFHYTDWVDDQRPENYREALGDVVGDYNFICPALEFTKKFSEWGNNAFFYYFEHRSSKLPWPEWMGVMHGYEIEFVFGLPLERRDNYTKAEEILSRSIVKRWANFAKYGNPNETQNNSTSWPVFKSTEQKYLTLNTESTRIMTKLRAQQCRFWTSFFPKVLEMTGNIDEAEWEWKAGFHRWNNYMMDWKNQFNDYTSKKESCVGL
Structure (SMILES),pIC50 [1],pIC50 [2],pIC50 [3],"pIC50 [2, 4]","pIC50 [3, 5]","pIC50 [1, 6]"
"C=C(C)[C@@H]1CCC(C)=C[C@H]1c1c(O)cc(O)cc1CCCCC [compound 1a, (1′R,2′R)-5′-methyl-6-pentyl-2′-(prop-1-en-2-yl)-1′,2′,3′,4′-tetrahydro-[1, 1′-biphenyl]-2,4-diol]",5.51,5.77,4.36,–,–,–
"C=C(C)[C@@H]1CCC(C)=C[C@H]1c1c(O)cc(O)cc1CCC [compound 1b, (1′R,2′R)-5′-methyl-2′-(prop-1-en-2-yl)-6-propyl-1′,2′,3′,4′-tetrahydro-[1, 1′-biphenyl]-2,4-diol]",4.24,5.40,4.50,–,–,–
"C=C(C)[C@@H]1CCC(C)=C[C@H]1c1c(C)cc(O)cc1O [compound 1c, (1′R,2′R)-5′,6-dimethyl-2′-(prop-1-en-2-yl)-1′,2′,3′,4′-tetrahydro-[1, 1′-biphenyl]-2,4-diol]",5.59,5.77,4.61,–,–,–
"C=C(C)[C@@H]1CCC(C)=C[C@H]1c1c(O)cc(O)cc1CCc1ccccc1 [compound 1d, (1′R,2′R)-5′-methyl-6-phenethyl-2′-(prop-1-en-2-yl)-1′,2′,3′,4′-tetrahydro-[1, 1′-biphenyl]-2,4-diol]",5.48,5.59,–,–,–,–
"C=C(C)[C@@H]1CCC(C)=C[C@H]1c1c(O)cc(O)cc1Br [compound 1e, (1′R,2′R)-6-bromo-5′-methyl-2′-(prop-1-en-2-yl)-1′,2′,3′,4′-tetrahydro-[1,1′-biphenyl]-2,4-diol]",4.70,–,–,5.03,4.58,–
"C=C(C)[C@@H]1CCC(C)=C[C@H]1c1cc(Cl)c(O)cc1O [compound 1f, (1′R,2′R)-5-chloro-5′-methyl-2′-(prop-1-en-2-yl)-1′,2′,3′,4′-tetrahydro-[1, 1′-biphenyl]-2,4-diol]",4.70,–,–,4.71,4.52,–
"C=C(C)[C@@H]1CCC(C)=C[C@H]1c1c(O)cc(O)cc1C#N [compound 1g, (1′R,2′R)-4,6-dihydroxy-5′-methyl-2′-(prop-1-en-2-yl)-1′,2′,3′,4′-tetrahydro-[1, 1′-biphenyl]-2-carbonitrile]",4.13,–,–,5.07,4.21,–
"C=C(C)[C@@H]1CCC(C)=C[C@H]1c1c(O)cc(O)cc1OC [compound 1h, (1′R,2′R)-6-methoxy-5′-methyl-2′-(prop-1-en-2-yl)-1′,2′,3′,4′-tetrahydro-[1, 1′-biphenyl]-2,4-diol]",–,–,–,4.26,4.45,4.11
"C=C(C)[C@@H]1CCC(C)=C[C@H]1c1ccc(O)c(C(C)=O)c1O [compound 1i, 1-((1′R,2′R)-2,4-dihydroxy-5′-methyl-2′-(prop-1-en-2-yl)-1′,2′,3′,4′-tetrahydro-[1, 1′-biphenyl]-3-yl)ethan-1-one]",–,–,–,5.14,4.78,5.18
"C=C(C)[C@@H]1CCC(C)=C[C@H]1c1c(O)c(C(C)=O)c(O)c([C@@H]2C=C(C)CC[C@H]2C(=C)C)c1O [compound 1j, 1-((1R,1″R,2R,2″R)-2′,4′,6′-trihydroxy-5,5″-dimethyl-2,2″-di (prop-1-en-2-yl)-1,1″,2,2″,3,3″,4,4″-octahydro-[1,1′:3′,1″-terphenyl]-5′-yl)ethan-1-one]",–,–,–,4.51,3.85,5.70
"C=C(C)[C@H]1CCC(C)=C[C@@H]1c1c(O)cc(OC)c([C@@H]2C=C(C)CC[C@H]2C(=C)C)c1O [compound 1k, (1R,1″S,2R,2″S)-6′-methoxy-5,5″-dimethyl-2,2″-di(prop-1-en-2-yl)-1, 1″,2,2″,3,3″,4,4″-octahydro-[1,1′:3′,1″-terphenyl]-2′,4′-diol]",–,–,–,–,–,5.28
"C=C(C)[C@@H]1CCC(C)=C[C@H]1c1c(O)cc(O)c(C(C)=O)c1O [compound 1l, 1-((1′R,2′R)-2,4,6-trihydroxy-5′-methyl-2′-(prop-1-en-2-yl)-1′,2′,3′,4′-tetrahydro-[1,1′-biphenyl]-3-yl)ethan-1-one]",–,–,–,5.18,5.10,4.63
"C=C(C)[C@@H]1CCC(C)=C[C@H]1c1ccc(O)c(Br)c1O [compound 1m, (1′R,2′R)-3-bromo-5′-methyl-2′-(prop-1-en-2-yl)-1′,2′,3′,4′-tetrahydro-[1, 1′-biphenyl]-2,4-diol]",4.37,–,–,4.35,3.93,–
"C=C(C)[C@@H]1CCC(C)=C[C@H]1c1ccc(O)c(C(=O)O)c1O [compound 1n, (1′R,2′R)-2,4-dihydroxy-5′-methyl-2′-(prop-1-en-2-yl)-1′,2′,3′,4′-tetrahydro-[1, 1′-biphenyl]-3-carboxylic acid]",–,–,–,4.88,4.51,4.97
"C=C(C)[C@@H]1CCC(C)=C[C@H]1c1cc(C(=O)NCCc2ccc(OC)cc2)c(O)cc1O [compound 1o, (1′R,2′R)-4,6-dihydroxy-N-(4-methoxyphenethyl)-5′-methyl-2′-(prop-1-en-2-yl)-1′, 2′,3′,4′-tetrahydro-[1,1′-biphenyl]-3-carboxamide]",–,–,–,4.56,4.25,4.82
"C=C(C)[C@@H]1CCC(C)=C[C@H]1c1c(O)cc(O)cc1C(C)=O [compound 1p, 1-((1′R,2′R)-4,6-dihydroxy-5′-methyl-2′-(prop-1-en-2-yl)-1′,2′,3′,4′-tetrahydro-[1, 1′-biphenyl]-2-yl) ethan-1-one]",–,–,–,5.70,5.68,5.34
"C=C(C)[C@@H]1CCC(C)=C[C@H]1c1cc(C(=O)NCCc2ccc(O)cc2)c(O)cc1O [compound 1q, (1′R,2′R)-4,6-dihydroxy-N-(4-hydroxyphenethyl)-5′-methyl-2′-(prop-1-en-2-yl)-1′, 2′,3′,4′-tetrahydro-[1,1′-biphenyl]-3-carboxamide]",5.14,–,–,5.48,4.74,–
